The record followed here is ChEMBL document CHEMBL3232942, “Benzophenone C-glucosides and gallotannins from mango tree stem bark with broad-spectrum anti-viral activity” (Bioorg Med Chem, 2014).

The target in assay [1] is Genome polyprotein (Coxsackievirus B3 (strain Nancy)) (UniProt P03313). The assay is described as follows: Inhibition of His-6-tagged Coxsackievirus B3 3C protease expressed in Escherichia coli BL21(DE3) using Asp-Glu-EDANS-(5-((2-aminoethyl)amino)naphthalene-1-sulfonic acid)-MSAIFQGPISK-DABCYL (4-((4-(dimethylamino)phenyl)azo)benzoic acid) as peptide substrate at 100 uM by fluorescence-based […] assay.

A further assay addresses Neuraminidase (Influenza A virus, UniProt Q194T1). The assay is described as follows: Inhibition of Influenza A virus (A/RI/5+/1957(H2N2)) recombinant neuraminidase using MUNANA as substrate after 30 mins.
In a further assay the target is Genome polyprotein (Coxsackievirus B3 (strain Nancy), UniProt P03313). The assay is described as follows: Inhibition of His-6-tagged Coxsackievirus B3 3C protease expressed in Escherichia coli BL21(DE3) using Asp-Glu-EDANS-(5-((2-aminoethyl)amino)naphthalene-1-sulfonic acid)-MSAIFQGPISK-DABCYL (4-((4-(dimethylamino)phenyl)azo)benzoic acid) as peptide substrate by fluorescence-based […] assay.

The test system of another assay is HepG2. Description: Cytotoxicity against human HepG2 cells assessed as cell viability after 48 hrs by MTT assay. The conditions noted are these: HepG2, 48 h. The assay is classed as cell-based.
Another assay has as its system HeLa. The assay is described as follows: Cytotoxicity against human HeLa cells assessed as cell viability after 48 hrs by MTT assay. The assay is classed as cell-based. (Tetrazolium dyes change colour on reduction, which living cells bring about.)

A word on the inhibition: it is the change of the read-out against control, counted positive when it falls. As a reminder, the IC50 is the concentration that inhibits the measured activity by half.

Activity calls are given as the source filed them. The rule behind the calls is not given here.

In assay [1], `COc1cc(O)c(C(=O)c2ccc(O)cc2)c(O)c1[C@@H]1O[C@H](CO)[C@@H](O)[C@H](O)[C@H]1OC(=O)c1cc(O)c(O)c(O)c1` came in with an inhibition of 53.8%.

In assay [1], `O=c1c2cc(O)c(O)cc2oc2c(-c3c(O)c([C@@H]4O[C@H](CO)[C@@H](O)[C@H](O)[C@H]4O)c(O)c4c(=O)c5cc(O)c(O)cc5oc34)c(O)c([C@@H]3O[C@H](CO)[C@@H](O)[C@H](O)[C@H]3O)c(O)c12` registered an inhibition of 46.1%.

`COc1cc(O)c(C(=O)c2ccc(O)cc2)c(O)c1[C@@H]1O[C@H](CO)[C@@H](O)[C@H](O)[C@H]1O` gave an inhibition in assay [1] of 17.5%.

Compound `O=c1c2cc(O)c(O)cc2oc2cc(O)c([C@@H]3O[C@H](CO)[C@@H](O)[C@H](O)[C@H]3O)c(O)c12` had an inhibition in assay [1] of 21.4%.

`CCOC(=O)C1=C[C@@H](OC(CC)CC)[C@H](NC(C)=O)[C@@H](N)C1` [OSELTAMIVIR PHOSPHATE]: on Neuraminidase, the IC50 came to 0.8 µM.

On to `O=C(OC[C@H]1O[C@@H](OC(=O)c2cc(O)c(O)c(O)c2)[C@H](OC(=O)c2cc(O)c(O)c(O)c2)[C@@H](OC(=O)c2cc(O)c(O)c(O)c2)[C@@H]1OC(=O)c1cc(O)c(O)c(O)c1)c1cc(O)c(O)c(O)c1` [PENTAGALLOYL GLUCOSE], for which the IC50 on Neuraminidase is 11.9 µM; against Genome polyprotein, 1.1 µM; with HepG2, 92.4 µM; in the assay with HeLa, 356 µM. In assay [1], this compound came in with an inhibition of 100%.

As for `CO[C@@H]([C@@H]1OC(C(=O)O)=C[C@H](NC(=N)N)[C@H]1NC(C)=O)[C@H](O)CO`, the 50% inhibitory concentration (IC50) at Neuraminidase was determined as 3.1 µM.

On to `COc1cc(O)c(C(=O)c2ccc(O)cc2)c(O[C@@H]2O[C@H](CO)[C@@H](O)[C@H](O)[C@H]2O)c1`, for which the inhibition result in assay [1] was “inactive”.

For the compound `COc1cc2oc3cc(O)c(O)cc3c(=O)c2c(O)c1[C@@H]1O[C@H](CO)[C@@H](O)[C@H](O)[C@H]1O`, the inhibition in assay [1] came out at 13.3%.

The compound `COc1cc(O)c(C(=O)c2ccc(O)cc2)c(O)c1[C@@H]1O[C@H](CO)[C@@H](O)[C@H](O)[C@H]1OC(=O)c1ccc(O)cc1` yielded an inhibition in assay [1] of 27.2%.

Regarding `O=C(OC[C@H]1O[C@@H](O)[C@H](OC(=O)c2cc(O)c(O)c(O)c2)[C@@H](OC(=O)c2cc(O)c(O)c(O)c2)[C@@H]1OC(=O)c1cc(O)c(O)c(O)c1)c1cc(O)c(O)c(O)c1`, the IC50 on Neuraminidase was found to be 9.2 µM; on Genome polyprotein, 2 µM; in the assay with HepG2, 151 µM; with HeLa, 240 µM. The compound further had an inhibition in assay [1] of 100%.

The compound `O=C(O[C@@H]1O[C@H](CO)[C@@H](O)[C@H](O)[C@H]1O)c1cc(O)c(O)c(O)c1` had an inhibition in assay [1] of 23.6%.

On to `O=C(O)c1cc(O)c(O)c(O)c1`, for which the inhibition result in assay [1] is “inactive”.

Consider `O=C(O[C@@H]1C[C@](O)(C(=O)O)C[C@@H](O)[C@H]1O)c1cc(O)c(O)c(O)c1`, for which the inhibition in assay [1] is 29.8%.

As for `O=C(OC(=O)c1ccc(O)c(O)c1)c1ccc(O)c(O)c1`, the inhibition entry in assay [1] was “inactive”.
